Blank lines part the entries; values can stand above or below the compound they belong to. The source made the active and inactive calls. No cut-off for these calls is given here.
Tests used:
[1] = biological target: T1, Stimulator of interferon genes protein (Homo sapiens, UniProt Q86WV6); test: Agonist activity at STING in human THP1-Dual cells incubated for 20 hrs by Quanti-luc reagent based assay; type: cell-based
[2] = biological target: T1, Stimulator of interferon genes protein; test: Agonist activity at STING in human […] KO-STING cells incubated for 20 hrs by Quanti-luc reagent based assay; type: cell-based, THP1-Dual KO-STING
[3] = test system: THP1-Dual; test: Cytotoxicity against human THP1-Dual habouring STING assessed as inhibition of cell growth by MTS assay; type: functional, cell-based
[4] = Cytotoxicity against human THP1-Dual KO-STING cells assessed as inhibition of cell growth by MTS assay; type: functional, cell-based
[5] = biological target: T2, Stimulator of interferon genes protein (Mus musculus, UniProt Q3TBT3); test: Agonist activity at STING in mouse RAW-Lucia ISG cells by luciferase gene reporter assay; type: cell-based
T2 sequence (Q3TBT3 whole entry): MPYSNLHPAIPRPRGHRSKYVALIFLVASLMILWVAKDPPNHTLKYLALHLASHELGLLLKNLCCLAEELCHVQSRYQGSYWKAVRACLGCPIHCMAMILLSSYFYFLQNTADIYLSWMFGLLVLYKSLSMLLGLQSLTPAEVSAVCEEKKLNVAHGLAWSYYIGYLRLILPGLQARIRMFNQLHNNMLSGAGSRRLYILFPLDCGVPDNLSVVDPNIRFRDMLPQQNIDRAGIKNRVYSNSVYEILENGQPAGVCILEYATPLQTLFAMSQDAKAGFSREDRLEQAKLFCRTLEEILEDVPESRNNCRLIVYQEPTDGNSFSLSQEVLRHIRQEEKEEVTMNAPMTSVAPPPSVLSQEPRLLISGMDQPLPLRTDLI

[6] = Metabolic stability in Sprague-Dawley rat plasma assessed as compound remaining measured after 1 hr by LC-MS/MS analysis; type: ADME, cell-free; details: read-out: Stability
[7] = Metabolic stability in Sprague-Dawley rat plasma assessed as compound remaining measured after 2 hrs by LC-MS/MS analysis; type: ADME, cell-free; details: read-out: Stability
[8] = biological target: T1, Stimulator of interferon genes protein; test: Activation of STING signaling pathway in human wild type THP-1 cells assessed as increase in IFN-beta mRNA level at 50 uM measured after 4 hrs by qRT-PCR analysis; type: cell-based; details: filed as agonist
[9] = biological target: T1, Stimulator of interferon genes protein; test: Activation of STING signaling pathway in human wild type THP-1 cells assessed as increase in IL-6 mRNA level at 50 uM measured after 4 hrs by qRT-PCR analysis; type: cell-based; details: filed as agonist
[10] = biological target: T1, Stimulator of interferon genes protein; test: Activation of STING signaling pathway in human wild type THP-1 cells assessed as increase in CXCL10 mRNA level at 50 uM measured after 4 hrs by qRT-PCR analysis; type: cell-based; details: filed as agonist
[11] = biological target: T1, Stimulator of interferon genes protein; test: Activation of STING signalling pathway in human wild type THP-1 cells assessed as increase in STING phosphorylation at 10 uM measured after 1 hr by Western blot analysis; type: cell-based; details: filed as agonist
[12] = biological target: T1, Stimulator of interferon genes protein; test: Activation of STING signalling pathway in human wild type THP-1 cells assessed as increase in IRF3 phosphorylation at 10 uM measured after 1 hr by Western blot analysis; type: cell-based; details: filed as agonist
[13] = biological target: T1, Stimulator of interferon genes protein; test: Activation of STING signalling pathway in human wild type THP-1 cells assessed as increase in TBK1 phosphorylation at 10 uM measured after 1 hr by Western blot analysis; type: cell-based; details: filed as agonist
[14] = biological target: T1, Stimulator of interferon genes protein; test: Activation of STING signalling pathway in human THP1-Dual cells assessed as increase in NF-kappaB-SEAP activation incubated for 24 hrs by QUANTI-Blue reagent based assay; type: cell-based
[15] = biological target: T1, Stimulator of interferon genes protein; test: Activation of STING signalling pathway in human THP1-Dual cells assessed as increase in IRF-luciferase activation incubated for 24 hrs by QUANTI-luc assay; type: cell-based
[16] = biological target: T1, Stimulator of interferon genes protein; test: Activation of STING signalling pathway in human wild type THP-1 cells assessed as increase in IFN-beta secretion incubated for 4 hrs by ELISA method; type: cell-based
[17] = biological target: T1, Stimulator of interferon genes protein; test: Activation of STING signalling pathway in human THP-1 cells assessed as increase in CXCL10 level incubated for 4 hrs by ELISA method; type: cell-based; details: filed as agonist, dose 0.046-0.421 pg/ml
[18] = biological target: T1, Stimulator of interferon genes protein; test: Activation of STING signalling pathway in human THP-1 cells assessed as increase in IL-6 level incubated for 4 hrs by ELISA method; type: cell-based; details: filed as agonist, dose 3.7-33.3 pg/ml
[19] = biological target: T1, Stimulator of interferon genes protein; test: Activation of STING signalling pathway in human THP-1 cells assessed as increase in TNF-alpha level incubated for 4 hrs by ELISA method; type: cell-based; details: filed as agonist, dose 3.7-33.3 pg/ml
[20] = biological target: T3, Stimulator of interferon genes protein (Mus musculus) (UniProt Q3TBT3); test: Activation of STING in mouse RAW264.7 cells assessed as increase in IFN-beta expression at 10 to 100 uM incubated for 24 hrs by qRT-PCR analysis; type: cell-based; details: dose 10-100 µM
T3 sequence (whole entry): T2 sequence (Q3TBT3 whole entry)

[21] = biological target: T3, Stimulator of interferon genes protein (Mus musculus); test: Activation of STING in mouse RAW264.7 cells assessed as increase in IL-6 expression at 10 to 100 uM incubated for 24 hrs by qRT-PCR analysis; type: cell-based; details: dose 10-100 µM
[22] = biological target: T3, Stimulator of interferon genes protein (Mus musculus); test: Activation of STING in mouse RAW264.7 cells assessed as increase in CXCL10 expression at 10 to 100 uM incubated for 24 hrs by qRT-PCR analysis; type: cell-based; details: dose 10-100 µM
[23] = biological target: T3, Stimulator of interferon genes protein (Mus musculus); test: Activation of STING in mouse RAW264.7 cells assessed as increase in TBK1 phosphorylation at 10 to 100 uM incubated for 4 hrs by Western blot analysis; type: cell-based; details: dose 10-100 µM
[24] = biological target: T3, Stimulator of interferon genes protein (Mus musculus); test: Activation of STING in mouse RAW264.7 cells assessed as increase in IRF3 phosphorylation at 10 to 100 uM incubated for 4 hrs by Western blot analysis; type: cell-based; details: dose 10-100 µM
[25] = biological target: T1, Stimulator of interferon genes protein; test: Activation of STING signaling pathway in human PBMC cells assessed as increase in IFN-beta mRNA level at 0.1 to 1 uM measured after 4 hrs by qRT-PCR analysis; type: cell-based; details: filed as agonist, dose 0.1-1 µM
[26] = biological target: T1, Stimulator of interferon genes protein; test: Activation of STING signaling pathway in human PBMC cells assessed as increase in IL-6 mRNA level at 0.1 to 1 uM measured after 4 hrs by qRT-PCR analysis; type: cell-based; details: filed as agonist, dose 0.1-1 µM
[27] = biological target: T1, Stimulator of interferon genes protein; test: Activation of STING signaling pathway in human PBMC cells assessed as increase in CXCL10 mRNA level at 0.1 to 1 uM measured after 4 hrs by qRT-PCR analysis; type: cell-based; details: filed as agonist, dose 0.1-1 µM
[28] = biological target: T1, Stimulator of interferon genes protein; test: Activation of STING signalling pathway in human PBMC cells assessed as increase in STING phosphorylation at 10 uM measured after 1 hr by Western blot analysis; type: cell-based; details: filed as agonist
[29] = biological target: T1, Stimulator of interferon genes protein; test: Activation of STING signalling pathway in human PBMC cells assessed as increase in TBK1 phosphorylation at 10 uM measured after 1 hr by Western blot analysis; type: cell-based; details: filed as agonist
[30] = biological target: T1, Stimulator of interferon genes protein; test: Activation of STING signalling pathway in human PBMC cells assessed as increase in IRF3 phosphorylation at 10 uM measured after 1 hr by Western blot analysis; type: cell-based; details: filed as agonist
[31] = biological target: T1, Stimulator of interferon genes protein; test: Activation of STING signalling pathway in human PBMC cells assessed as increase in STING phosphorylation at 55.68 uM measured after 1 hr by Western blot analysis; type: cell-based
[32] = biological target: T1, Stimulator of interferon genes protein; test: Activation of STING signalling pathway in human PBMC cells assessed as increase in IFN-beta level incubated for 4 hrs by ELISA method; type: cell-based
[33] = biological target: T1, Stimulator of interferon genes protein; test: Activation of STING signalling pathway in human PBMC cells assessed as increase in CXCL10 level incubated for 4 hrs by ELISA method; type: cell-based
[34] = biological target: T1, Stimulator of interferon genes protein; test: Activation of STING signalling pathway in human PBMC cells assessed as increase in IL-6 level incubated for 4 hrs by ELISA method; type: cell-based
[35] = Stability in rat plasma assessed as residual of initial concentration at 1 hr; type: ADME, cell-free; details: read-out: Stability

T1 sequence (Q86WV6 whole entry): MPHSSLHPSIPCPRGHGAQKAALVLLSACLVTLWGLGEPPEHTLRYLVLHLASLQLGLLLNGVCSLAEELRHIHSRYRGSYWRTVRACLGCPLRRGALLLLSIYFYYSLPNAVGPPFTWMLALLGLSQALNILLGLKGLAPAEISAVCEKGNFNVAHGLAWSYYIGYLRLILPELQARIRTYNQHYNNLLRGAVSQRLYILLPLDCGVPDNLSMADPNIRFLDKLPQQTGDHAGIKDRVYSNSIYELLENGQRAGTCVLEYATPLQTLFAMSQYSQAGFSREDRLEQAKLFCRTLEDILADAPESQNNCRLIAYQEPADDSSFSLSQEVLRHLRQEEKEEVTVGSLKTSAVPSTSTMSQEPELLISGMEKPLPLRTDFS

SMILES: CCn1nc(C)cc1C(=O)Nc1nc2cc(C(N)=O)cc(OCCCOC)c2n1CCCNC(=O)OCc1ccccc1
remaining at 1 h [35]: 36.4%

SMILES: CCn1nc(C)cc1C(=O)Nc1nc2cc(C(N)=O)cc(OC)c2n1Cc1cn(CCc2ccccc2)nn1
EC50 [1]: > 100 µM
EC50 [2]: > 100 µM
IC50 [3]: > 100 µM
IC50 [4]: > 100 µM

SMILES: CCn1nc(C)cc1C(=O)Nc1nc2cc(C(N)=O)cc(OC)c2n1C/C=C/CNC(=O)c1ccccn1
EC50 [1]: > 100 µM
EC50 [2]: > 100 µM
IC50 [3]: > 100 µM
IC50 [4]: > 100 µM

SMILES: CCn1nc(C)cc1C(=O)Nc1nc2cc(C(N)=O)cc(OC)c2n1C/C=C/CNC1CCN(C)CC1
EC50 [1]: > 100 µM
EC50 [2]: > 100 µM
IC50 [3]: > 100 µM
IC50 [4]: > 100 µM

SMILES: CCn1nc(C)cc1C(=O)Nc1nc2cc(C(N)=O)cc(OC)c2n1CCCN1CCC(NC(=O)c2ccc3ccccc3c2)CC1
EC50 [1]: > 100 µM
EC50 [2]: > 100 µM
IC50 [3]: > 100 µM
IC50 [4]: > 100 µM

SMILES: CCn1nc(C)cc1C(=O)Nc1nc2cc(C(N)=O)cc(OC)c2n1C/C=C/CNC(=O)c1cnccn1
EC50 [1]: > 100 µM
EC50 [2]: > 100 µM
IC50 [3]: > 100 µM
IC50 [4]: > 100 µM

SMILES: CCn1nc(C)cc1C(=O)Nc1nc2cc(C(N)=O)cc(OC)c2n1C/C=C/CNC(=O)Nc1ccc2ccccc2c1
EC50 [1]: > 100 µM
EC50 [2]: > 100 µM
IC50 [3]: > 100 µM
IC50 [4]: > 100 µM

More lines, main results first:

EC50 [1]: 1.58 µM
EC50 [2]: > 100 µM
EC50 [5]: > 100 µM
remaining at 1 h [6]: 78.7%
remaining at 2 h [7]: 60.5%
Activity [8]: Active
Activity [9]: Active
Activity [10]: Active
Activity [11]: Active
Activity [12]: Active
Activity [13]: Active
EC50 [14]: 5.5 µM
Activity ([14]; filed as agonist): Dose-Dependent Effect
EC50 [15]: 3.2 µM
Activity ([15]; filed as agonist): Dose-Dependent Effect
EC50 [16]: 4.74 µM
Activity ([16]; filed as agonist): Dose-Dependent Effect
Activity [17]: Dose-Dependent Effect
Activity [18]: Dose-Dependent Effect
Activity [19]: Dose-Dependent Effect
Activity [20]: inactive
Activity [21]: inactive
Activity [22]: inactive
Activity [23]: inactive
Activity [24]: inactive
Activity [25]: Active
Activity [26]: Active
Activity [27]: Active
Activity [28]: Active
Activity [29]: Active
Activity [30]: Active
Activity [31]: inactive
EC50 [32]: 0.27 µM
Activity ([32]; filed as agonist, dose 0.137-1.235 µM): Dose-Dependent Effect
EC50 [33]: 0.12 µM
Activity ([33]; filed as agonist, dose 0.046-0.412 µM): Dose-Dependent Effect
EC50 [34]: 0.03 µM
Activity ([34]; filed as agonist, dose 0.006-0.16 µM): Dose-Dependent Effect
SMILES: CCn1nc(C)cc1C(=O)Nc1nc2cc(C(N)=O)cc(OC)c2n1NCCCC(=O)NCc1ccc(F)cc1
IC50 [3]: > 100 µM
IC50 [4]: > 100 µM

EC50 [1]: 39.4 µM
EC50 [2]: > 100 µM
SMILES: CCn1nc(C)cc1C(=O)Nc1nc2cc(C(N)=O)cc(OCC3COC3)c2n1NCCCNC(=O)c1ccc2ccccc2c1
IC50 [3]: 11.3 µM
IC50 [4]: 18.2 µM

EC50 [1]: 9.73 µM
EC50 [2]: > 100 µM
SMILES: CCn1nc(C)cc1C(=O)Nc1nc2cc(C(N)=O)cc(OCCCN3CCOCC3)c2n1NCCCC(=O)NCc1ccc(F)cc1
IC50 [3]: > 100 µM
IC50 [4]: > 100 µM

EC50 [1]: 7.13 µM
EC50 [2]: > 100 µM
SMILES: CCn1nc(C)cc1C(=O)Nc1nc2cc(C(N)=O)cc(OCC3COC3)c2n1NCCCC(=O)NCc1ccc(F)cc1
IC50 [3]: > 100 µM
IC50 [4]: > 100 µM
